Reference: article PMC12150210 (RSC Advances, 2025)

Molecular target: hCG (whole human chorionic gonadotropin) (Homo sapiens, UniProt P0DN86)
Test: microscale thermophoresis
Assay type: binding

SMILES: CO[C@@]1(NC(=O)C2SC(=C(C(N)=O)C(=O)O)S2)C(=O)N2C(C(=O)O)=C(CSc3nnnn3C)CS[C@@H]21 (stereo partly drawn) [Cefotetan, (6R,7S)-7-[[4-(2-amino-1-carboxy-2-oxoethylidene)-1,3-dithietane-2-carbonyl]amino]-7-methoxy-3-[(1-methyltetrazol-5-yl)sulfanylmethyl]-8-oxo-5-thia-1-azabicyclo[4.2.0]oct-2-ene-2-carboxylic acid]
- Kd: 4.6 ± 3 µM
